Results as given in publication PMC6345968, “Structural basis for species-selective targeting of Hsp90 in a pathogenic fungus” (Nature Communications, 2019).
pEC50: −log10 of the molar value. Where two headings read alike, the source gives them in different places.

How the values were obtained:
[1] = target: T1, Hsp90 in C. albicans (SC5314) lysate (Candida albicans, UniProt P46598); assay: biochemical; format: binding; conditions: for Ratio re. GdA: EC50 relative to GdA; for FP signal: raw
T1 construct: endogenous in cells; host or cells: C. albicans SC5314 whole-cell lysate
T1 sequence (P46598 whole entry): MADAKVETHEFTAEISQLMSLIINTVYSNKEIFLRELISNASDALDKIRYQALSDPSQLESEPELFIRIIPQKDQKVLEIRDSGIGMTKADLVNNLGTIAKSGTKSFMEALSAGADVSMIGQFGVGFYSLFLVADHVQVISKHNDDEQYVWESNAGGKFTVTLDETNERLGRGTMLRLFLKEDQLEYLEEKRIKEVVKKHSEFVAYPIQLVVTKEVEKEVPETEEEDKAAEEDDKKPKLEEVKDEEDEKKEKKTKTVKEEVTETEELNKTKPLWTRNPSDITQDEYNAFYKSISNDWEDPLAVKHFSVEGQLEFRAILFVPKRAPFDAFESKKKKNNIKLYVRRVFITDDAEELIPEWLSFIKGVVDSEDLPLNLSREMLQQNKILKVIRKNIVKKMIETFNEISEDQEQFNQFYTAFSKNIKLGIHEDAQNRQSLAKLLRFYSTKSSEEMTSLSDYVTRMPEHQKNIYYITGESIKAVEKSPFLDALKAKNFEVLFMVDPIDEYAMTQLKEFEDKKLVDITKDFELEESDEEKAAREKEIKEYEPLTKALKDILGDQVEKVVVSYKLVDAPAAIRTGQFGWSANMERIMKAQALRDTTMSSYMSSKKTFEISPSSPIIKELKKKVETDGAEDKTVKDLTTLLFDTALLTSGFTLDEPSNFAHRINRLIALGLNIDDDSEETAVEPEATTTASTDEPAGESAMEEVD

[2] = test system: Hsp90 in HEPG2 lysate; conditions: for FP signal: raw
[3] = SC5314 lysate, 0.457 nM compound
[4] = SC5314 lysate, 1.372 nM compound
[5] = SC5314 lysate, 4.115 nM compound
[6] = SC5314 lysate, 12.346 nM compound
[7] = SC5314 lysate, 37.037 nM compound
[8] = SC5314 lysate, 111.111 nM compound
[9] = SC5314 lysate, 333.333 nM compound
[10] = SC5314 lysate, 1000 nM compound
[11] = SC5314 lysate, 3000 nM compound
[12] = ratio of GdA-normalized EC50s, human over fungal lysate
[13] = ratio of GdA-relative EC50 ratios, HepG2 over SC5314
[14] = EC50 / EC50 of GdA in HepG2 lysate
[15] = EC50 relative to GdA, HEPG2 lysate
[16] = HEPG2 lysate, log concentration 0.137354 (1.372 nM)
[17] = HEPG2 lysate, log concentration 0.61437 (4.115 nM)
[18] = HEPG2 lysate, log concentration 1.09153 (12.346 nM)
[19] = HEPG2 lysate, log concentration 1.56864 (37.037 nM)
[20] = HEPG2 lysate, log concentration 2.04576 (111.111 nM)
[21] = HEPG2 lysate, log concentration 2.52288 (333.333 nM)
[22] = HEPG2 lysate, log concentration 3 (1000 nM)
[23] = HEPG2 lysate, log concentration 3.47712 (3000 nM)
[24] = HEPG2 lysate, log concentration -0.340084 (0.457 nM)
[25] = HepG2 lysate, 0.457 nM compound
[26] = HepG2 lysate, 1.372 nM compound
[27] = HepG2 lysate, 4.115 nM compound
[28] = HepG2 lysate, 12.346 nM compound
[29] = HepG2 lysate, 37.037 nM compound
[30] = HepG2 lysate, 111.111 nM compound
[31] = HepG2 lysate, 333.333 nM compound
[32] = HepG2 lysate, oxime panel experiment 220817

## CC1CC2OC2C=CC=CC(=NOCc2ccccc2)Cc2c(Cl)c(O)cc(O)c2C(=O)O1 (mixture of isomers) [compound 217]
[1]; SC5314 lysate
  Ratio re. GdA: 23.0159
[1]; SC5314 lysate, 0.457 nM
  FP signal (raw): 197
[1]; [3]
  FP signal relative to 0 nM: 0.9426
  FP signal: 197
[1]; SC5314 lysate, 1.372 nM
  FP signal (raw): 194
[1]; [4]
  FP signal relative to 0 nM: 0.9282
  FP signal: 194
[1]; SC5314 lysate, 4.115 nM
  FP signal (raw): 198
[1]; [5]
  FP signal relative to 0 nM: 0.9474
  FP signal: 198
[1]; SC5314 lysate, 12.346 nM
  FP signal (raw): 197
[1]; [6]
  FP signal relative to 0 nM: 0.9426
  FP signal: 197
[1]; SC5314 lysate, 37.037 nM
  FP signal (raw): 192
[1]; [7]
  FP signal relative to 0 nM: 0.9187
  FP signal: 192
[1]; SC5314 lysate, 111.111 nM
  FP signal (raw): 183
[1]; [8]
  FP signal relative to 0 nM: 0.8756
  FP signal: 183
[1]; SC5314 lysate, 333.333 nM
  FP signal (raw): 134
[1]; [9]
  FP signal relative to 0 nM: 0.6411
  FP signal: 134
[1]; SC5314 lysate, 1000 nM
  FP signal (raw): 42
[1]; [10]
  FP signal relative to 0 nM: 0.201
  FP signal: 42
[1]; SC5314 lysate, 3000 nM
  FP signal (raw): 38
[1]; [11]
  FP signal relative to 0 nM: 0.1818
  FP signal: 38
[1]; SC5314 lysate, not normalized, oxime panel experiment 220817, read-out: EC50
  pEC50: 6.41
[1]; [12]
  HepG2/SC5314: 0.6913
[1]; [13]
  HepG2/SC5314: 0.6913
[2]; [14]
  Ratio rel. GdA (HepG2): 15.9107
[2]; [15]
  Ratio rel. GdA (HepG2): 15.9107
[2]; [16]
  FP signal, Fxn Control: 0.9806
[2]; [17]
  FP signal, Fxn Control: 0.9951
[2]; [18]
  FP signal, Fxn Control: 0.9951
[2]; [19]
  FP signal, Fxn Control: 0.9612
[2]; [20]
  FP signal, Fxn Control: 0.8592
[2]; [21]
  FP signal, Fxn Control: 0.6117
[2]; [22]
  FP signal, Fxn Control: 0.2524
[2]; [23]
  FP signal, Fxn Control: 0.1893
[2]; [24]
  FP signal, Fxn Control: 1.005
[2]; HepG2 lysate, 0.457 nM
  FP signal (raw): 207
[2]; [25]
  FP signal: 207
[2]; HepG2 lysate, 1.372 nM
  FP signal (raw): 202
[2]; [26]
  FP signal: 202
[2]; HepG2 lysate, 4.115 nM
  FP signal (raw): 205
[2]; [27]
  FP signal: 205
[2]; HepG2 lysate, 12.346 nM
  FP signal (raw): 205
[2]; [28]
  FP signal: 205
[2]; HepG2 lysate, 37.037 nM
  FP signal (raw): 198
[2]; [29]
  FP signal: 198
[2]; HepG2 lysate, 111.111 nM
  FP signal (raw): 177
[2]; [30]
  FP signal: 177
[2]; HepG2 lysate, 333.333 nM
  FP signal (raw): 126
[2]; [31]
  FP signal: 126
[2]; HepG2 lysate, 1000 nM
  FP signal (raw): 52
[2]; HepG2 lysate, 1000 nM compound
  FP signal: 52
[2]; HepG2 lysate, 3000 nM
  FP signal (raw): 39
[2]; HepG2 lysate, 3000 nM compound
  FP signal: 39
[2]; [32]
  pEC50: 6.45

## Cc1ccc(CON=C2C=CC=CC3OC3CC(C)OC(=O)c3c(O)cc(O)c(Cl)c3C2)cc1 (mixture of isomers) [compound 218]
[1]; SC5314 lysate
  Ratio re. GdA: 57.1252
[1]; SC5314 lysate, 0.457 nM
  FP signal (raw): 202
[1]; [3]
  FP signal relative to 0 nM: 0.9806
  FP signal: 202
[1]; SC5314 lysate, 1.372 nM
  FP signal (raw): 199
[1]; [4]
  FP signal relative to 0 nM: 0.966
  FP signal: 199
[1]; SC5314 lysate, 4.115 nM
  FP signal (raw): 200
[1]; [5]
  FP signal relative to 0 nM: 0.9709
  FP signal: 200
[1]; SC5314 lysate, 12.346 nM
  FP signal (raw): 199
[1]; [6]
  FP signal relative to 0 nM: 0.966
  FP signal: 199
[1]; SC5314 lysate, 37.037 nM
  FP signal (raw): 200
[1]; [7]
  FP signal relative to 0 nM: 0.9709
  FP signal: 200
[1]; SC5314 lysate, 111.111 nM
  FP signal (raw): 197
[1]; [8]
  FP signal relative to 0 nM: 0.9563
  FP signal: 197
[1]; SC5314 lysate, 333.333 nM
  FP signal (raw): 171
[1]; [9]
  FP signal relative to 0 nM: 0.8301
  FP signal: 171
[1]; SC5314 lysate, 1000 nM
  FP signal (raw): 108
[1]; [10]
  FP signal relative to 0 nM: 0.5243
  FP signal: 108
[1]; SC5314 lysate, 3000 nM
  FP signal (raw): 45
[1]; [11]
  FP signal relative to 0 nM: 0.2184
  FP signal: 45
[1]; [12]
  HepG2/SC5314: 1.973
[1]; [13]
  HepG2/SC5314: 1.973
[2]; [14]
  Ratio rel. GdA (HepG2): 112.714
[2]; [15]
  Ratio rel. GdA (HepG2): 112.714
[2]; [16]
  FP signal, Fxn Control: 0.9811
[2]; [17]
  FP signal, Fxn Control: 0.9953
[2]; [18]
  FP signal, Fxn Control: 0.9858
[2]; [19]
  FP signal, Fxn Control: 0.9906
[2]; [20]
  FP signal, Fxn Control: 0.9811
[2]; [21]
  FP signal, Fxn Control: 0.9575
[2]; [22]
  FP signal, Fxn Control: 0.8066
[2]; [23]
  FP signal, Fxn Control: 0.4009
[2]; [24]
  FP signal, Fxn Control: 0.9906
[2]; HepG2 lysate, 0.457 nM
  FP signal (raw): 210
[2]; [25]
  FP signal: 210
[2]; HepG2 lysate, 1.372 nM
  FP signal (raw): 208
[2]; [26]
  FP signal: 208
[2]; HepG2 lysate, 4.115 nM
  FP signal (raw): 211
[2]; [27]
  FP signal: 211
[2]; HepG2 lysate, 12.346 nM
  FP signal (raw): 209
[2]; [28]
  FP signal: 209
[2]; HepG2 lysate, 37.037 nM
  FP signal (raw): 210
[2]; [29]
  FP signal: 210
[2]; HepG2 lysate, 111.111 nM
  FP signal (raw): 208
[2]; [30]
  FP signal: 208
[2]; HepG2 lysate, 333.333 nM
  FP signal (raw): 203
[2]; [31]
  FP signal: 203
[2]; HepG2 lysate, 1000 nM
  FP signal (raw): 171
[2]; HepG2 lysate, 1000 nM compound
  FP signal: 171
[2]; HepG2 lysate, 3000 nM
  FP signal (raw): 85
[2]; HepG2 lysate, 3000 nM compound
  FP signal: 85
[2]; [32]
  pEC50: 5.60

## CCNC(=O)c1noc(-c2cc(C(C)C)c(O)cc2O)c1-c1ccc(CN2CCOCC2)cc1 [AUY9222]
[2]; Human lysate, refit block, unit inferred
  pEC50: 8.20

## CC1(C)CC(=O)c2c(C(F)(F)F)nn(-c3ccc(C(N)=O)c(N[C@H]4CC[C@H](O)CC4)c3)c2C1 [SNX]
[2]; read-out: FP EC50, Human lysate, rounded summary
  pEC50: 7.40
